In patent US20080004272A1, “Compositions and methods for modulating gated ion channels” (PainCeptor Pharma Corporation, priority 2006, published 2008):

Tests used:
Assay type in all cases: cell-based
ASIC1a [1] = biological target: T1, ASIC1a (Homo sapiens, UniProt P78348); assay: Calcium imaging of MES-induced calcium response (FlexStation, "Flex"); parameters: host or cells: HEK293; details: ASIC1a expressing HEK293 cells; for inhibition at 40 µM: read-out: % inh. at 40 μM (Flex)
T1 sequence (P78348 1-528): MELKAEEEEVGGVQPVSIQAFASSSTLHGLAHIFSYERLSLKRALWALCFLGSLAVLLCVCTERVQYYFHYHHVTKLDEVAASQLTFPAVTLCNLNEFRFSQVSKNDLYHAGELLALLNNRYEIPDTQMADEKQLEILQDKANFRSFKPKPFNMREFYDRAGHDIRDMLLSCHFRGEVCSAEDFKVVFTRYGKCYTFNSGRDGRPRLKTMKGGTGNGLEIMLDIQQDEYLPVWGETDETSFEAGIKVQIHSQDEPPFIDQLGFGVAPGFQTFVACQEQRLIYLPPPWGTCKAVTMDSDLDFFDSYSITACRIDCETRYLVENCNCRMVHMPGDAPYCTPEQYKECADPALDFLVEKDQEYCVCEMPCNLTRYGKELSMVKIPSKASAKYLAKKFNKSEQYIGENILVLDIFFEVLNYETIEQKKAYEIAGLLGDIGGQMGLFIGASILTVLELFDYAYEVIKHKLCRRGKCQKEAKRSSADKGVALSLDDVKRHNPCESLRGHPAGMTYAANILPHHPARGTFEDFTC
Protocol: ASIC1a expressing HEK293 cells are grown in culture medium (DMEM with 10% FBS), in polystyrene culture flasks ([…]) at 37° C. in a humidified atmosphere of 5% CO2. Confluency of cells should be 80-90% on day of plating. Cells are rinsed with 10 ml of PBS and cells are re-suspended by addition of culture medium and trituration with a 25 ml pipette.
The cells are seeded at a density of approximately 1×10^6 cells/ml (100 μl/well) in black-walled, clear bottom, 96-well plates pre-treated with 10 mg/l poly-D-lysin (75 μl/well for ≧30 min). Plated cells are allowed to proliferate for 24 h before loading with dye.
Fluo-4/AM (1 mg, Molecular Probes) is dissolved in 912 μl DMSO. The Fluo-4/AM stock solution (1 mM) is diluted with culture medium to a final concentration of 2 μM (loading solution).
The culture medium is aspirated from the wells, and 50 μl of the Fluo-4/AM loading solution is added to each well. The cells are incubated at 37° C. for 30 min.
After the loading period, the loading solution is aspirated and the cells are washed twice with 100 μl modified Assay Buffer (145 mM NaCl, 5 mM KCl, 5 mM CaCl2, 1 mM MgCl2, 10 mM HEPES, pH 7.4) to remove extracellular dye. Following the second wash, 100 μl modified Assay Buffer is added to each well and the fluorescence is measured in FLIPR™ or FlexStation™ (Molecular Devices, USA), or any other suitable equipment known to the skilled in the art.
The MES-induced peak calcium response, in the presence of test substance, is expressed relatively to the MES response alone. Test substances that block the MES-induced calcium response are re-tested in triplicates. Confirmed hits are picked for further characterization by performing full dose-response curves to determine potency of each hit compound as represented by the IC50 values (i.e., the concentration of the test substance which inhibits 50% of the MES-induced calcium response).

ASIC1a [2] = biological target: T1, ASIC1a; assay: Calcium imaging of MES-induced calcium response (FLIPR); parameters: host or cells: HEK293; details: ASIC1a expressing HEK293 cells, MES-induced calcium response; read-out: IC50 (FLIPR)
ASIC1a [3] = biological target: T1, ASIC1a; assay: Two-electrode voltage clamp in Xenopus laevis oocytes (Xo), acid-induced currents; parameters: expressed in transfected cells; host or cells: Xenopus laevis oocytes (nuclear microinjection of expression vector such as pcDNA3); details: 50 μM, Xenopus oocytes; read-out: % inh. at 50 μM (Xo)
Summary of the method: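 Defolliculated oocytes were nuclear-injected with channel cDNA and expressed for 2–4 days at 19 °C. Under two-electrode voltage clamp at room temperature, oocytes were superfused with pH 7.4 Ringer, and currents were evoked by switching to acidic MES Ringer (pH<7). Compound was present in both control and acidic solutions.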

| IC50 (ASIC1a [1]) | inhibition at 40 µM (ASIC1a [1]; 40 μM) | SMILES | other results |
| --- | --- | --- | --- |
| < 10 µM | – | CCN1CCc2c(-c3cc(Cl)ccc3OC)cc3c(c2C1)NC(=O)/C3=N/O [Compound 219] | – |
| – | 25 to 45% | COc1ccc(F)cc1-c1ccc2c(c1)COC(=O)N2 [Compound 187, 6-(5-Fluoro-2-methoxy-phenyl)-1,4-dihydro-benzo[d][1,3]oxazin-2-one] | – |
| – | – | CCN(CC)Cc1cc(-c2cc(F)ccc2OC)cc2c1NC(=O)/C2=N/O [Compound 213] | % inh. at 40 μM (Flex) (ASIC1a [1]; 40 μM): <25% inhibition at 40 μM (Flex) |
| – | < 25% | COc1ccc(F)cc1-c1ccc(N)c(CO)c1 [Compound 186, (4-Amino-5′-fluoro-2′-methoxy-biphenyl-3-yl)-methanol] | – |
| – | < 25% | CCN(CC)Cc1cc(-c2cc(F)ccc2OC)cc2c1NC(=O)/C2=N/O [Compound 183, 7-Diethylaminomethyl-5-(5-fluoro-2-methoxy-phenyl)-1H-indole-2,3-dione 3-oxime] | – |
| < 10 µM | – | CCN1CCc2c(-c3cc(C)cc(C)c3)cc3c(c2C1)NC(=O)/C3=N/O [Compound 216] | – |
| < 10 µM | – | CCN1CCc2c(-c3ccccc3OC)cc3c(c2C1)NC(=O)/C3=N/O [Compound 220] | – |
| – | < 25% | CCN(CC)Cc1cc(-c2cc(F)ccc2OC)ccc1NC(=O)N(C)C [Compound 215] | – |
| < 10 µM | – | CCOc1ccccc1-c1cc2c(c3c1CCN(CC)C3)NC(=O)/C2=N/O [Compound 221] | – |
| – | < 25% | CCOC(=O)Nc1ccc(-c2cc(F)ccc2OC)cc1CN(CC)CC [Compound 212] | – |
| – | < 25% | CCN(CC)Cc1cc(-c2cc(F)ccc2OC)ccc1NC(=O)N1CCOCC1 [Compound 214] | – |
| < 10 µM | – | CCN1CCc2c(-c3cc(C)ccc3C)cc3c(c2C1)NC(=O)/C3=N/O [Compound 218] | – |
| – | > 50% | CCN1CCc2c(-c3cccc(C)c3C)cc3c(c2C1)NC(=O)/C3=N/O [Compound 217] | – |
| – | – | CCOC(=O)CNCc1ccc(-c2ccccc2)c2c1CN(C)CC2 [Compound 118] | IC50 (ASIC1a [2]): > 70 µM; inhibition at 50 µM (ASIC1a [3]): < 25% |
